Among the data in patent US4826815A, “Renin inhibiting compounds” (Abbott Laboratories, priority 1987, dated 1989) are Inhibition values, retold here.

Molecules are shown by their SMILES.

One experiment addresses T1, human renal renin (Homo sapiens, UniProt P00797).
T1 construct: human renal renin, free from acid proteolytic activity; from tissue
T1 sequence (P00797 67-406): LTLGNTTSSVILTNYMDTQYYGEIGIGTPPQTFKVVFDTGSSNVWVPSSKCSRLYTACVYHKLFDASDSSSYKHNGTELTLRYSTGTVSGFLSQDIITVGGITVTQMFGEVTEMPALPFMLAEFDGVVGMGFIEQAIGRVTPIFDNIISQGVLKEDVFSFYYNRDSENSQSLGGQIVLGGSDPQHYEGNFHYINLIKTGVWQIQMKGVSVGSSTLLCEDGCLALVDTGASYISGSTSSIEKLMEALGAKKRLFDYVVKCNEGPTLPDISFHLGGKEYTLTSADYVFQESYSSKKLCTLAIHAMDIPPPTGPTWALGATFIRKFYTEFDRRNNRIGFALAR
Nature of the experiment: In vitro inhibition of human renal renin; angiotensin I formed measured by radioimmunoassay. The following applies: @ 10^-5; human renin substrate (angiotensinogen), 37° C., pH 6.0. It counts as biochemical. As for the experimental part:
At the end of the incubation, the amount of angiotensin I formed is measured by radioimmunoassay and the percent inhibition or renin is calculated.
As a reminder, the Inhibition is the change of the read-out against control, counted positive when it falls. `CC(C)CC(NC(=O)C(C)NC(=O)C(Cc1ccccc1)NC(=O)OC(C)(C)C)C(O)CSc1ccccc1` (stereo not drawn) [Example 25, Boc-Phe-Ala amide of 3-amino-2-hydroxy-5-methyl-1 phenylmercaptohexane] came in with an Inhibition of 56%.

The molecule `CC(C)CC(NC(=O)C(C)NC(=O)C(Cc1ccccc1)NC(=O)OC(C)(C)C)C(O)CSCc1ccccc1` (stereo not drawn) [Example 28, Boc-Phe-Ala amide of 3 amino 1-benzylmercapto-2 hydroxy-5-methylhexane] registered an Inhibition of 57%.

Regarding `CC(C)CC(NC(=O)C(C)NC(=O)C(Cc1ccccc1)NC(=O)OC(C)(C)C)C(O)CSC1CCCCC1` (stereo not drawn) [Example 29, Boc-Phe-Ala amide of 3-amino-1-cyclohexyl mercapto-2-hydroxy-5-methylhexane], the Inhibition turned out to be 94%.

`CC(C)CC(NC(=O)C(C)NC(=O)C(Cc1ccccc1)NC(=O)OC(C)(C)C)C(O)CNc1ccccc1` (stereo not drawn) [Example 31, Boc-Phe-Ala amide of 3-amino-2-hydroxy-5-methyl-1-phenylaminohexane] had an Inhibition of 31%.

Consider `CC(C)CC(NC(=O)C(C)NC(=O)C(Cc1ccccc1)NC(=O)OC(C)(C)C)C(O)C[S+]([O-])C1CCCCC1` (stereo not drawn) [Example 55, Boc-Phe Ala amide of 3-amino-1-cyclohexyl sulfinyl-2-hydroxy-5-methylhexane], for which the Inhibition is recorded as 46%.

The same experiment, now with this note: @ 10^-6; human renin substrate (angiotensinogen), 37° C., pH 6.0.
For the molecule `CC(C)CC(NC(=O)C(Cc1cnc[nH]1)NC(=O)C(Cc1ccccc1)NC(=O)OC(C)(C)C)C(O)CSc1ccccc1` (stereo not drawn) [Example 23, Boc-Phe-His amide of 3-amino-2 hydroxy-5-methyl 1-phenylmercaptohexane], the Inhibition came to 56%.

In turn, `CC(C)CC(=O)NCC(O)C(CC(C)C)NC(=O)C(Cc1cnc[nH]1)NC(=O)C(Cc1ccccc1)NC(=O)OC(C)(C)C` (stereo not drawn) [Example 79, Boc-Phe-His Amide of 3-Amino-2- hydroxy-1-(isovalerylamino)-5-methylhexane] returned an Inhibition of 63%.

The same experiment, now with this note: @ 10^-7; human renin substrate (angiotensinogen), 37° C., pH 6.0.
On to `CC(C)(C)OC(=O)NC(Cc1ccccc1)C(=O)NC(Cc1cnc[nH]1)C(=O)NC(Cc1ccccc1)C(O)CSC1CCCCC1` (stereo not drawn) [Example 50, Boc-Phe-His amide of 3-amino-1-cyclohexylmercapto-2-hydroxy-4-phenylbutane], for which the Inhibition turned out to be 89%.

In turn, `O=C(NC(Cc1cnc[nH]1)C(=O)NC(CC1CCCCC1)C(O)CSC1CCCCC1)C(Cc1ccccc1)Cc1ccccc1` (stereo not drawn) [Example 81, Dba-His Amide of 3-amino-4-cyclohexyl-1-cyclohexylmercapto-2-hydroxybutane] gave an Inhibition of 71%.

Staying with this experiment, now noted: @ 10^-8; human renin substrate (angiotensinogen), 37° C., pH 6.0.
For the molecule `CC(C)SCC(O)C(CC1CCCCC1)NC(=O)C(Cc1cnc[nH]1)NC(=O)C(Cc1ccccc1)NC(=O)OC(C)(C)C` (stereo not drawn) [Example 51, Boc-Phe-His amide of 3 amino-4-cyclohexyl-2-hydroxy-1-isopropylmercaptobutane], the Inhibition is given as 80%.

As to `CC(C)(C)OC(=O)NC(Cc1ccccc1)C(=O)NC(Cc1cnc[nH]1)C(=O)NC(CC1CCCCC1)C(O)CS(=O)(=O)C1CCCCC1` (stereo not drawn) [Example 54, Boc-Phe-His amide of 3 amino-4-cyclohexyl-1-cyclohexylsulfonyl-2-hydroxybutane], the Inhibition was found to be 81%.

For `CC(C)(C)CC(=O)NC(Cc1ccccc1)C(=O)NC(Cc1c[nH]cn1)C(=O)NC(CC1CCCCC1)C(O)CSC1CCCCC1` (stereo not drawn) [Example 82, Tba-Phe-His-Amide of 3-amino-4-cyclohexyl-1-cyclohexylmercapto-2-hydroxybutane], the Inhibition was 82%.
